# Results: PMC5537347, “A short D-enantiomeric antimicrobial peptide with potent immunomodulatory and antibiofilm activity against multidrug-resistant Pseudomonas aeruginosa and Acinetobacter baumannii” (Scientific Reports, 2017)
# Where two headings read alike, the source gives them in different places. Peptide text beside a SMILES is read from it.
# Legend:
# [1] = system: P. aeruginosa PAO1 biofilm; assay: Disruption of established biofilms, microtiter dish crystal violet assay; format: cell-based; conditions: 32 × MIC, mature (24 hour) biofilm, 24 hours at 37 °C, crystal violet OD 595 nm
# Method: Figure 1 Efficacy of peptides on established biofilms of P. aeruginosa PAO1 and A. baumannii ATCC BAA-1605. […] After incubation, wells were washed and biofilms were stained with 0.5% (w/v) crystal violet for 30 minutes. The dye was solubilized with ethanol (95%) and the optical density (595 nm) of the biofilm mass was measured. Experiments were repeated twice independently and the average values are reported.
# To examine the peptides’ ability to disrupt bacterial biofilms, the microtiter dish biofilm formation assay was employed[41]–[43].
# [2] = system: LPS-induced activation of the LAL enzyme (Limulus amoebocyte lysate); assay: Binding of peptides to lipopolysaccharide (LAL assay); format: biochemical; conditions: one EU of LPS, 37 °C, 30 minutes
# Method: (§1) Figure 3 Ability of peptides to neutralize LPS and reduce inflammatory cytokines expression. (A) LPS binding activity of peptides. Peptides at different concentrations were incubated with one endotoxin unit (EU) of LPS at 37 °C for 30 minutes. […] The binding of peptides with LPS is expressed as percent change relative to the untreated samples. (B) Anti-inflammatory effect of peptides on LPS-stimulated macrophages. J774A.1 cells were stimulated with LPS (150 ng/mL final concentration) in the presence of different concentrations of peptides. Cells stimulated with LPS alone and untreated cells served as controls. Cells were incubated for six hours at 37 °C before the supernatant from each treatment group was collected. Detection of tumor necrosis factor-α (TNF-α) and interleukin-6 (IL-6) in supernatants was determined using ELISA. Cytokine levels are expressed as percent change relative to the LPS-stimulated control. Statistical analysis was calculated using one-way ANOVA, with post hoc Tukey’s multiple comparisons test. P < 0.05 was considered significant. One asterisk (*) indicates significant difference with the negative control.
# To determine the peptides’ ability to bind to LPS, a Limulus amoebocyte lysate (LAL) kit (Genscript, USA Inc.) was utilized, as described in previous reports. The peptides were dissolved in pyrogen-free water and serially diluted in the same solvent. The peptides were then incubated with one endotoxin unit (EU) of LPS at 37 °C for 30 minutes in order to permit the peptides to bind LPS. The reaction mixture (50 μL) was added to 50 μL of LAL reagent, and further incubated for 10 minutes. Next, 100 μL of LAL chromogenic substrate was added. The mixture was incubated at 37 °C for six minutes. The optical density (at 545 nm) was determined using a microplate reader. Colistin was used as a positive control. The binding of peptides with LPS was expressed as the percent change relative to the untreated control.
# [3] = system: IL-6; assay: Anti-inflammatory effect on LPS-stimulated macrophages, ELISA; format: cell-based, murine; conditions: J774A.1 cells, LPS 150 ng/mL, six hours
# Method: as §1
# (§2) To assess the anti-inflammatory effect of our peptides on LPS-stimulated macrophages, J774A.1 cells were seeded and incubated as described above (for toxicity assessment). Next, the cells were stimulated with LPS (150 ng/ml final concentration) in the presence of different concentrations of peptides (RR and D-RR4). Cells stimulated with LPS alone and untreated cells served as controls. Cells were incubated for six hours at 37 °C and the supernatant from each treatment was collected and stored at −20 °C until use. Tumor necrosis factor-α (TNF-α) and interleukin-6 (IL-6) present in the supernatant was quantified using ELISA, as described previously. Cytokine levels were presented as the percent change relative to the LPS-stimulated control, using triplicate samples for each treatment condition.
# [4] = system: TNF-α; assay: as above; format: cell-based, murine; conditions: J774A.1 cells, LPS 150 ng/mL, six hours
# Method: as §1, §2
# [5] = system: C. elegans strain glp-4;sek 1; assay: Toxicity of peptides in uninfected C. elegans; format: in vivo, Caenorhabditis elegans; conditions: worms grown four days with peptide; D-RR4 and colistin at 8 × MIC
# Method: To test the efficacy of the synthetic peptides to protect against infections in vivo, we utilized a C. elegans model of bacterial infection. This model has been used extensively for early-stage evaluation of promising antimicrobials, [35], [36]. Initially, the lethal dose of D-RR4 against uninfected nematodes was determined.
# (A) Evaluation of toxicity of peptides in Caenorhabditis elegans. C. elegans strain glp-4;sek 1 was grown for four days in the presence of peptides at different concentrations. Worms were monitored daily and the live worms were counted. Results are expressed as a Kaplan-Meier survival curve. (B) Evaluation of antimicrobial activity of peptides to reduce the bacterial CFU inside infected Caenorhabditis elegans. C. elegans strain glp-4; sek 1 were infected with P. aeruginosa PAO1, colistin-resistant P. aeruginosa 1109, or A. baumannii ATCC BAA-1605. […] After treatment, worms were lysed and bacteria were counted. One asterisk (*) indicates significant difference with the negative control. Two asterisks (**) indicates significant difference with the monotherapy treatment (P < 0.05). Results are expressed as means from three biological replicates ± standard deviation. (C) Efficacy of peptides in a Caenorhabditis elegans model of bacterial infection. […] Worms were monitored daily and the live worms were counted. Results are expressed as a Kaplan-Meier survival curve. C. elegans receiving no treatment served as a negative control.
# [6] = system: P. aeruginosa and A. baumannii isolates
# Description: (§3) The broth microdilution technique was utilized to assess the MIC of designed peptides according to the guidelines of the Clinical and Laboratory Standards Institute (CLSI)[37].
# [7] = system: colistin-resistant P. aeruginosa isolated from cystic fibrosis patients; conditions: colistin-resistant isolated from cystic fibrosis patients
# Description: as §3
# [8] = system: human keratinocytes (HaCaT cells); assay: Cytotoxicity, MTS assay; conditions: 24 h
# Method: (§4) A significant limitation for translating AMPs into clinical applications is their toxicity to host (mammalian) cells. Herein, we evaluated the cytotoxic effects of our peptide constructs against murine macrophages (J774.1A) and human keratinocytes (HaCaT cells), via the MTS assay.
# (§5) The peptides were assayed for potential in vitro toxicity against human keratinocytes (HaCaT) and murine macrophage cells (J774A.1), as described before, with the following modifications. Cells were treated with peptides at different concentrations for 24 hours. The therapeutic index of the peptides was calculated as the ratio of mammalian EC50 (the concentration of peptide that inhibited growth of 50% of the mammalian cells) to the MIC50 of peptides against bacteria.
# [9] = system: murine macrophages (J774.1A); assay: Cytotoxicity, MTS assay; conditions: 24 h
# Method: as §4, §5
# [10] = system: human red blood cells; assay: Hemolysis assay; format: cell-based; conditions: for HC50: red cells of human
# Method: Next, we assessed the hemolytic activity of the peptides on human red blood cells (RBCs).
# Peptides were assayed for hemolytic activity against human red blood cells, as described previously.
SMILES,MIC90 [6],MIC50 [7],MIC90 [7],EC50 [8],EC50 [9],HC50 [10],further results
NC[C@H]1O[C@H](O[C@H]2[C@H](O)[C@@H](O[C@H]3O[C@H](CO)[C@@H](O)[C@H](N)[C@H]3O)[C@H](N)C[C@@H]2N)[C@H](N)C[C@@H]1O [tobramycin],,,,,,,biofilm mass disrupted [1]: 50%
CC[C@H](C)[C@H](NC(=O)[C@H](CCCNC(=N)N)NC(=O)[C@H](CCCNC(=N)N)NC(=O)[C@H](CC(C)C)NC(=O)[C@@H](N)Cc1c[nH]c2ccccc12)C(=O)N[C@@H](CCCCN)C(=O)N[C@@H](C)C(=O)N[C@@H](Cc1c[nH]c2ccccc12)C(=O)N[C@@H](CC(C)C)C(=O)N[C@@H](CCCNC(=N)N)C(=O)N[C@@H](CCCNC(=N)N)C(=O)O [RR] (H-WLRRIKAWLRR-OH; N-terminus and C-terminus assumed),,,,,,,inhibition of LPS-induced activation of the LAL enzyme ([2]; 5 µM peptide): 21.3%; inhibition of LPS-induced activation of the LAL enzyme ([2]; 10 µM peptide): 43.2%; inhibition of LPS-induced activation of the LAL enzyme ([2]; 15 µM peptide): 59.6%; inhibition of LPS-induced activation of the LAL enzyme ([2]; 20 µM peptide): 82.4%; decrease of IL-6 production ([3]; 10 µM): 75.4%; decrease of IL-6 production ([3]; 20 µM): 96.5%; decrease of TNF-α production ([4]; 10 µM): 24.4%; decrease of TNF-α production ([4]; 20 µM): 84.0%
CC[C@H](C)[C@H](NC(=O)CN)C(=O)NCC(=O)N[C@@H](C)C(=O)N[C@H](C(=O)N[C@@H](CC(C)C)C(=O)N[C@@H](CCCCN)C(=O)N[C@H](C(=O)N[C@@H](CC(C)C)C(=O)N[C@H](C(=O)N[C@H](C(=O)NCC(=O)N[C@@H](CC(C)C)C(=O)N1CCC[C@H]1C(=O)N[C@@H](C)C(=O)N[C@@H](CC(C)C)C(=O)N[C@H](C(=O)N[C@@H](CO)C(=O)N[C@@H](Cc1c[nH]c2ccccc12)C(=O)N[C@H](C(=O)N[C@@H](CCCCN)C(=O)N[C@@H](CCCNC(=N)N)C(=O)N[C@@H](CCCCN)C(=O)N[C@@H](CCCNC(=N)N)C(=O)N[C@@H](CCC(N)=O)C(=O)N[C@@H](CCC(N)=O)C(N)=O)[C@@H](C)CC)[C@@H](C)CC)[C@@H](C)O)[C@@H](C)O)C(C)C)C(C)C [Melittin],,,,,,,toxicity to uninfected worms [5]: completely killed C. elegans after 3 days
CC[C@H](C)[C@H](NC(=O)[C@H](Cc1c[nH]c2ccccc12)NC(=O)[C@H](CCCCN)NC(=O)[C@H](CCCCN)NC(=O)[C@@H](NC(=O)[C@H](CCCNC(=N)N)NC(=O)[C@H](CCCNC(=N)N)NC(=O)[C@@H](NC(=O)[C@@H](N)Cc1c[nH]c2ccccc12)[C@@H](C)CC)[C@@H](C)CC)C(=O)N[C@@H](CCCNC(=N)N)C(=O)N[C@@H](CCCNC(=N)N)C(=O)N[C@H](C(=O)N[C@@H](Cc1c[nH]cn1)C(=O)N[C@@H](CCCCN)C(=O)O)C(C)C [RR2] (H-WIRRIKKWIRRVHK-OH; N-terminus and C-terminus assumed),8 µM,32 µM,32 µM,64 µM,128 µM,256 µM,MIC50 [6]: 4 µM; Therapeutic index (TI) RBCs [10]: 64
CNC(C)C1CCC(N)C(OC2C(N)CC(N)C(OC3OCC(C)(O)C(NC)C3O)C2O)O1 (stereo not drawn) [gentamicin],,,,,,,biofilm mass disrupted [1]: 50%
CC[C@H](C)[C@H](NC(=O)[C@H](CCCNC(=N)N)NC(=O)[C@H](CCCNC(=N)N)NC(=O)[C@H](CC(C)C)NC(=O)[C@@H](N)Cc1c[nH]c2ccccc12)C(=O)N[C@@H](CCCCN)C(=O)N[C@@H](C)C(=O)N[C@@H](Cc1c[nH]c2ccccc12)C(=O)N[C@@H](CC(C)C)C(=O)N[C@@H](CCCNC(=N)N)C(=O)N[C@@H](CCCNC(=N)N)C(=O)N[C@@H](CCCCN)C(=O)N[C@@H](CCCNC(=N)N)C(=O)N[C@@H](CCCCN)C(=O)O [RR3] (H-WLRRIKAWLRRKRK-OH; N-terminus and C-terminus assumed),16 µM,16 µM,32 µM,128 µM,128 µM,> 256 µM,MIC50 [6]: 8 µM; Therapeutic index (TI) RBCs [10]: 64
CC[C@H](C)[C@H](NC(=O)[C@H](CCCCN)NC(=O)[C@H](CCCCN)NC(=O)[C@H](Cc1c[nH]c2ccccc12)NC(=O)[C@@H](NC(=O)[C@H](CCCCN)NC(=O)[C@@H](NC(=O)[C@H](CCCNC(=N)N)NC(=O)[C@H](CCCNC(=N)N)NC(=O)[C@H](CCCCN)NC(=O)[C@@H](N)Cc1c[nH]c2ccccc12)[C@@H](C)CC)[C@@H](C)CC)C(=O)N[C@@H](CCCNC(=N)N)C(=O)O [RR1] (H-WKRRIKIWKKIR-OH; N-terminus and C-terminus assumed),>256 µM,>128 µM,>128 µM,> 256 µM,> 256 µM,> 256 µM,MIC against all tested bacterial strains [6]: > 256 µM; MIC50 ([6]; MIC that inhibited growth of 50% of all isolates (Table 2)): > 256 µM; MIC [7]: >128 µM
